{"source": "patent US9877997B2", "about": "“Methods and compositions for regulating SRCA2A expression levels in myocardial infarction” (Stealth BioTherapeutics Corp., priority 2013, dated 2018)", "key": {"[1]": {"test_system": "Rats with permanent left coronary artery occlusion", "assay": "Quantitative histologic analysis of scar circumference, scar thickness and expansion index (Example 2)", "type": "in vivo, rat", "conditions": "6 weeks after treatment", "protocol": "(§1) Rats were anesthetized, ventilated, and a thoracotomy performed in the left 4th intercostal space. Temperature was maintained at 36° C. by placing the rats on a heating pad during the procedure. The pericardium was excised and the proximal left coronary artery isolated and permanently occluded with a suture. Coronary artery occlusion was confirmed by cyanosis and akinesis of the anterior wall of the ventricle. The chest was closed, air evacuated, and the rats allowed to recover. Analgesia was administered per the veterinarian. An echocardiogram was obtained at approximately 15 minutes post coronary artery occlusion. At 2 hours rats were randomized to receive chronic daily D-Arg-2′6′-Dmt-Lys-Phe-NH2 (delivered subcutaneously by an Alzet Osmotic Pump—3 mg/kg/day) or water. The Osmotic Pump delivered approximately 0.15 μl/hr for 6 weeks (model 2006; 200 μl). The Alzat pump was implanted subcutaneously between the shoulder blades while the rat was still anesthetized. After 6 weeks the rats were re-anesthetized, weighed, and a second echocardiogram was obtained under anesthesia. Cut downs were performed to isolate the carotid artery and jugular vein. Heart rate and blood pressure were measured. A Millar catheter was inserted into the left ventricle and LV systolic pressure, LV end diastolic pressure, +dP/dt, and −dP/dt were measured. A left ventriculogram was performed using IV fluoroscopic contrast in order to determine LV stroke volume and ejection fraction. Under deep anesthesia, the heart was excised, weighed, and pressure fixed at 11 mmHg with formalin. The lungs were also excised and weighed. Postmortem LV volume was measured by filling the LV cavity with fluid and measuring the total fluid. The hearts were sliced into four transverse sections and histologic slides were prepared and stained with hematoxylin and eosin and with picrosirius red, which stains collagen. Quantitative histologic analysis included: total circumference, scar circumference, non-infarcted wall circumference, total LV area, total LV cavity area, LV wall thickness (at several points), non-infarcted wall thickness; myocardial infarct expansion index.\n(§2) All data is reported as means±SEM. Values between groups were compared by Student t-test. P is significant at p<0.05 level."}, "[2]": {"test_system": "Rats with permanent left coronary artery occlusion", "assay": "Survival during 6 weeks treatment after coronary occlusion (Example 2)", "type": "in vivo, rat", "conditions": "6 weeks treatment after randomization at 2 hours post occlusion", "protocol": "(§3) Rats were anesthetized, ventilated, and a thoracotomy performed in the left 4th intercostal space. Temperature was maintained at 36° C. by placing the rats on a heating pad during the procedure. The pericardium was excised and the proximal left coronary artery isolated and permanently occluded with a suture. Coronary artery occlusion was confirmed by cyanosis and akinesis of the anterior wall of the ventricle. The chest was closed, air evacuated, and the rats allowed to recover. Analgesia was administered per the veterinarian. An echocardiogram was obtained at approximately 15 minutes post coronary artery occlusion. At 2 hours rats were randomized to receive chronic daily D-Arg-2′6′-Dmt-Lys-Phe-NH2 (delivered subcutaneously by an Alzet Osmotic Pump—3 mg/kg/day) or water. […] Heart rate and blood pressure were measured. A Millar catheter was inserted into the left ventricle and LV systolic pressure, LV end diastolic pressure, +dP/dt, and −dP/dt were measured. […] Postmortem LV volume was measured by filling the LV cavity with fluid and measuring the total fluid. […] Quantitative histologic analysis included: total circumference, scar circumference, non-infarcted wall circumference, total LV area, total LV cavity area, LV wall thickness (at several points), non-infarcted wall thickness; myocardial infarct expansion index. […]"}, "[3]": {"test_system": "Rats with permanent coronary artery ligation", "assay": "Post-infarction remodeling in a rodent model of heart failure, LV chamber volume (Example 3)", "type": "in vivo, rat", "protocol": "Rats underwent the permanent coronary artery ligation, as described in Example 2. The rats were split into two groups and treated for six weeks with either 3 mg/kg/day of D-Arg-2′6′-Dmt-Lys-Phe-NH2 or 0.9% NaCl (saline) continuously through mini-osmotic pumps, which were implanted into each animal.\nAfter the six week period, LV function was assessed with echocardiography. Additionally, the hearts were excised and the heart tissue analyzed for LV chamber volume using tetrazolium salt staining Heart tissue in the border zone and remote areas around the infarct were also harvested and underwent gene array analysis to determine the expression levels of genes involved in mitochondrial metabolism."}, "[4]": {"test_system": "Rats with permanent left coronary artery occlusion", "assay": "Heart weight and post-mortem LV volume (Example 2)", "type": "in vivo, rat", "conditions": "6 weeks after treatment", "protocol": "as §1, with “The hearts were sliced into four transverse sections and histologic slides were prepared and stained with hematoxylin and eosin and with picrosirius red, which stains collagen.” left out, “index. […]” for “index.”"}, "[5]": {"test_system": "Rats with permanent left coronary artery occlusion", "assay": "LV stroke volume and ejection fraction by LV ventriculography (Example 2)", "type": "in vivo, rat", "conditions": "6 weeks after treatment, 3 mg/kg/day s.c.", "protocol": "as §3"}, "[6]": {"test_system": "SERCA2a expression", "assay": "SERCA2a expression by qRT-PCR in heart samples post-myocardial infarction (Example 1)", "type": "in vivo", "conditions": "rat, 6 weeks, normalized to β-actin, relative to sham", "protocol": "Rats were anesthetized, ventilated, and a thoracotomy performed in the left 4th intercostal space. Temperature was maintained at 36° C. by placing the rats on a heating pad during the procedure. The pericardium was excised and the proximal left coronary artery isolated and permanently occluded with a suture. Coronary artery occlusion was confirmed by cyanosis and akinesis of the anterior wall of the ventricle. The chest was closed, air evacuated, and the rats allowed to recover. Analgesia was administered per the veterinarian. An echocardiogram was obtained at approximately 15 minutes post coronary artery occlusion. At 2 hours rats were randomized to receive chronic daily D-Arg-2′6′-Dmt-Lys-Phe-NH2 (delivered subcutaneously by an Alzet Osmotic Pump—3 mg/kg/day, n=7), water (n=7), sham operation (normal non-infarct hearts, n=7). The Osmotic Pump delivered approximately 0.15 μl/hr for 6 weeks (model 2006; 200 μl). The Alzat pump was implanted subcutaneously between the shoulder blades while the rat was still anesthetized.\nAfter 6 weeks, heart samples were collected from shams, border zone cells of water-treated infarcted hearts (MI/BZ) and D-Arg-2′6′-Dmt-Lys-Phe-NH2-treated hearts (MI/BZ+AP), and remote noninfarcted area cells of water-treated hearts (MI/R) and of D-Arg-2′6′-Dmt-Lys-Phe-NH2-treated hearts (MI/R+AP). […]"}, "[7]": {"test_system": "Rats with permanent left coronary artery occlusion", "assay": "LV fractional shortening by echocardiography, permanent coronary occlusion (Example 2)", "type": "in vivo, rat", "protocol": "as §1, with “The hearts were sliced into four transverse sections and histologic slides were prepared and stained with hematoxylin and eosin and with picrosirius red, which stains collagen.” left out, “index. […]” for “index.”"}, "[8]": {"test_system": "Rats with permanent left coronary artery occlusion", "assay": "Hemodynamics: heart rate, blood pressure and LV pressures by Millar catheter (Example 2)", "type": "in vivo, rat", "conditions": "6 weeks after treatment", "protocol": "as §1, §2"}, "[9]": {"test_system": "plasma membrane of several mammalian cell types", "conditions": "energy-independent manner; cited from earlier work"}}}
{"substance": "D-Arg-2′6′-Dmt-Lys-Phe-NH2", "values": [{"measurement": "Scar circumference (%), expressed as percentage of total LV circumference", "setting": "[1]", "value": "39.7±2.2", "unit": "%"}, {"measurement": "Scar thickness", "setting": "[1]", "value": "0.504 ± 0.039", "unit": "mm"}, {"measurement": "Septum thickness", "setting": "[1]", "value": "1.45 ± 0.03", "unit": "mm"}, {"measurement": "LV non-scar circumference", "setting": "[1]; histological analysis", "value": "15.4±0.4", "unit": "mm"}, {"measurement": "scar circumference", "setting": "[1]; histological analysis", "value": "9.9±0.6", "unit": "mm"}, {"measurement": "Expansion index", "setting": "[1]; [LV cavity area/Total LV area×Septum thickness/Scar thickness]", "value": "1.67 ± 0.12"}, {"measurement": "deaths during treatment", "setting": "[2]", "value": "no rats died"}, {"measurement": "LV volume/heart weight", "setting": "[3]; 3 mg/kg/day for six weeks by mini-osmotic pump versus 0.9% NaCl, FIG. 6", "value": "decrease in LV volume/heart weight"}, {"measurement": "LV dilation", "setting": "[3]; 3 mg/kg/day for six weeks by mini-osmotic pump, post-infarction model of heart failure", "value": "reduced LV dilation"}, {"measurement": "Heart weight", "setting": "[4]; 3 mg/kg/day s.c.", "value": "0.724 ± 0.011", "unit": "g"}, {"measurement": "LV volume (post-mortem)", "setting": "[4]; heart pressure fixed at 11 mmHg", "value": "0.519 ± 0.019", "unit": "mL"}, {"measurement": "LV volume/heart weight", "setting": "[4]; post-mortem LV volume standardized by heart weight", "value": "0.72±0.02"}, {"measurement": "LV ejection fraction", "setting": "[5]", "value": "55.3±1.4", "unit": "%"}, {"measurement": "LV stroke volume", "setting": "[5]", "value": "0.257 ± 0.008", "unit": "mL"}, {"measurement": "SERCA2a expression, border zone cells (MI/BZ+AP)", "setting": "[6]; 3 mg/kg/day s.c. osmotic pump from 2 hours post occlusion", "value": "restored SERCA2a expression to near normal levels"}, {"measurement": "SERCA2a expression, nonischemic remote area (MI/R)", "setting": "[6]; 3 mg/kg/day s.c. osmotic pump", "value": "no significant differences"}, {"measurement": "left ventricular fractional shortening (LVFS)", "setting": "[7]; 6 weeks after treatment, 3 mg/kg/day s.c. osmotic pump from 2 hours post occlusion", "value": "28.8±1.7", "unit": "%"}, {"measurement": "left ventricular fractional shortening (LVFS)", "setting": "[7]; 15 minutes after coronary occlusion (before treatment)", "value": "45±1.8"}, {"measurement": "left ventricular fractional shortening (LVFS)", "setting": "[7]; baseline before coronary occlusion (before treatment)", "value": "44.5±1.1", "unit": "%"}, {"measurement": "minimum left ventricular pressure", "setting": "[8]", "value": "0.64±0.55", "unit": "mmHg"}, {"measurement": "Diastolic BP", "setting": "[8]; 3 mg/kg/day s.c.", "value": "85 ± 2", "unit": "mmHg"}, {"measurement": "Heart Rate", "setting": "[8]; 3 mg/kg/day s.c.", "value": "209 ± 5"}, {"measurement": "Mean BP", "setting": "[8]; 3 mg/kg/day s.c.", "value": "94 ± 3", "unit": "mmHg"}, {"measurement": "Systolic BP", "setting": "[8]; 3 mg/kg/day s.c.", "value": "114 ± 4", "unit": "mmHg"}, {"measurement": "+dp/dt", "setting": "[8]; left ventricle", "value": 5668}, {"measurement": "Ped (end diastolic left ventricular pressure)", "setting": "[8]; left ventricle", "value": 5.63}, {"measurement": "Pes (end systolic left ventricular pressure)", "setting": "[8]; left ventricle", "value": 105}, {"measurement": "Pmin (minimum left ventricular pressure)", "setting": "[8]; left ventricle", "value": "0.64 +"}, {"measurement": "Tau Glantz", "setting": "[8]; left ventricle", "value": 24.6}, {"measurement": "Tau Weiss", "setting": "[8]; left ventricle", "value": 14.6}, {"measurement": "−dp/dt", "setting": "[8]; left ventricle", "value": 3639}]}
{"substance": "2′,6′-Dmt-D-Arg-Phe-Lys-NH2", "values": [{"measurement": "plasma membrane penetration", "setting": "[9]", "value": "readily penetrates the plasma membrane"}]}
